Measured values taken from US20030040114A1, “SMALL MOLECULE MODULATION OF RIBOZYMES” (Warner-Lambert Company,, priority 1996, published 2003).
Starred links: 1 amine or outer side, 2 acyl side, 3 side chain; linkers in the order of their positions; H or OH if unused. Positions of bridges follow the written chain, without caps; N, C: chain ends. Non-standard residues stand in square brackets, D forms with d. Residues, ends and D or L forms follow the SMILES beside them. *: point of attachment. X1 = NC1=N[C@@H]([C@H](N[*:1])C(=O)[*:2])C[C@H](O)N1; ΔAla(Z-3-ureido) = NC(=O)N/C=C(\N)C(=O)O; β3hOrn = NCCC[C@H](N)CC(=O)*; Dap = NC[C@H](N)C(=O)O

Legend:
[1] = tested on: self-splicing Pneumocystis carinii Group I intron RNA; assay: Multiple-loading gel electrophoresis assay for self-splicing Group I intron; type: biochemical; details: single concentration 20 μM; four repeats; FIG. 6
Protocol: As another example of a separation method useful in the present invention, a high-throughput gel electrophoresis assay with multiple loading capability is used in studies of self-splicing Group I introns. To be specific, the reaction sample, prepared similarly as described in the filtration assay, was loaded on a denaturing polyacrylamide gel (7 M urea, 6% polyacrylamide) and electrophoresed for 1 hour at room temperature. Due to their lengths, the ^32P-labeled products of the self-splicing introns can be readily distinguished from the ^32P-GTP on a polyacrylamide gel. On a single polyacrylamide gel, usually three or four repetitive loadings of different samples into the same wells at discrete times present no interference between samples. […] After a total of 3 hours of electrophoresis, the desired products are well-resolved in all samples regardless of the time of loading.
Each sample contains the same self-splicing reaction solution as described in the previous section (32 μL of precursor RNA in self-splicing buffer, 2 μL of DMSO or compound, and 6 μL solution of α-^32P-GTP). As described previously, the products of the self-splicing reactions are 5′-end labeled intron-containing 439-nt RNA (from the first step) and 390-nt RNA (from the second step). These large RNA fragments can be readily separated from the starting material, ^32P-GTP. After splicing reactions, a total of 20 samples were loaded on a polyacrylamide gel three times (first loading at time 0, then two more loadings at 1, and 2 hours after the first loading, respectively). […] In this gel electrophoresis assay, for the purpose of quantitation of reaction yields, appropriate ^32P-labeled RNA fragments can be introduced to each sample as an internal standard immediately prior to loading. The gels containing self-splicing products and internal standards separated according to their different mobilities can be dried and quantitated by a phosphor imager (Phosphoimager, Molecular Dynamics). […]

[2] = tested on: self-splicing Pneumocystis carinii Group I intron RNA; assay: Filtration assay for self-splicing Group I intron (96-well, 32P-GTP incorporation, TCA precipitation); type: biochemical; details: single concentration 20 μM; four repeats; FIG. 6
Protocol: A high-throughput screening assay for self-splicing Group I introns using 96-well format filter plates is disclosed. Nonradioactive, intron-containing precursor RNA is incubated with α-^32P-labeled GTP in the absence or presence of small molecules. During the first step of Group I intron splicing, ^32P-GTP is covalently ligated to the 5′ terminus of the intron. Subsequently, the intron-containing products of both the first (439-nt RNA) and the second (390-nt RNA) steps are radioactively labeled at the 5′-end with ^32P isotopes. Free ^32P-GTP and the longer ^32P-labeled (acid-precipitable) RNA products can be readily separated through trichloroacetic acid precipitation and subsequent filtration through nitrocellulose membrane. The efficiency of inhibition can be followed by measuring the amount of the radioactivity retained on the filter membrane. In the control experiment, the spliced products containing 5′-^32P GMP will retain on the membrane. If the first step (5′-cleavage) is inhibited by a small molecule, incorporation of ^32P-GTP to the precursor RNA will be inhibited and, therefore, a decreased amount of radioactivity will be found on the membrane.
In each well of a 96-well U-bottom microtiter plate, 32 μL of precursor RNA (in self-splicing buffer 50 mM Tris-HCl, pH 7.5, 10 mM (NH4)2SO4, 10 mM MgCl2, 5 mM spermidine, and 5% glycerol) was added with 2 μL of a small organic compound in dimethylsulfoxide (DMSO) and the mixture incubated at room temperature for 5 minutes. […] The filter was allowed to dry and the retained radioactivities were determined using scintillation counting (Wallac Microbeta Counter). […]
Column 1 represents the results of eight repeats of the self-splicing reactions in the absence of any inhibitors while Column 12 represents the data of eight repeats of solution containing ^32P-GTP only. […] The results of a total of 18 plates (a total of 1,440 samples) have been analyzed and the statistical distribution of the inhibitory activities is shown in FIG. 4. […]

## N=C(N)c1ccc(OCCCCCOc2ccc(C(=N)N)cc2)cc1 [pentamidine]
[1]
  Self-splicing inhibitory effect, gel electrophoresis assay: either low or modest activity
[2]
  Self-splicing inhibitory effect, filtration assay: either low or modest activity

## [H]/N=C(/N)N[C@H]1[C@H](O)[C@@H](O)[C@H](O[C@@H]2O[C@@H](C)[C@](O)(C=O)[C@H]2O[C@@H]2O[C@@H](CO)[C@H](O)[C@@H](O)[C@@H]2NC)[C@@H](N/C(N)=N\[H])[C@@H]1O [streptomycin]
[1]
  Self-splicing inhibitory effect, gel electrophoresis assay: either low or modest activity
[2]
  Self-splicing inhibitory effect, filtration assay: either low or modest activity

## NCCC[C@H](N)CC(=O)N[C@H]1CNC(=O)[C@H]([C@H]2C[C@H](O)NC(N)=N2)NC(=O)/C(=C/NC(N)=O)NC(=O)[C@H](CO)NC(=O)[C@H](CO)NC1=O [viomycin, Viomycin] (β3hOrn-[Dap]SS[ΔAla(Z-3-ureido)][X1]; lactam 1-C)
[1]
  Self-splicing inhibitory effect, gel electrophoresis assay: either low or modest activity
[2]
  Self-splicing inhibitory effect, filtration assay: either low or modest activity
